The nature of data set [1]: cmc-value (critical micellar concentration) of detergents, own measurements of the inventors. In kind it is physicochemical. Conditions: reflects solubility of detergent in water. The text has this:
The inventors of the submitted application have, namely, recognized that the low yield and the lacking reproducibility in the known methods is to be assigned to the second detergent. […] Further, it has to be taken care that the second detergent, in its final concentration, is above the critical micellar concentration. […] Above the cmc-value, the concentration of solved detergent-monomers is constant.
According to own measurements of the inventors, the cmc-values for alkyl-phosphorylcholine with an alkyl rest of C12, C13, C14 or C16 are 500, 150, 50 or 5 μM.

Another data set deals with AO adenosine receptor. Nature of the data set: adenosine binding to refolded receptor by flow dialysis. On the set-up: species or system shark Squalus acanthias. The conditions noted are these: refolded receptor in Alkyl(C16)phosphorylcholine/lipid micelles, after 48 hours at 4° C. The text has this: The cDNA of one of the following receptors is, in-frame, inserted into the vector pGEX2a-c-His: AO adenosine receptor from the shark Squalus acanthias, human beta-2-adrenergic receptor, human neuropeptide YY1 receptor, human neuropeptide YY2 receptor, human melanocortine-1 receptor, human oxytocin receptor. This vector contains downstream of the Tac-promotor the sequence encoding glutathione-S-transferase and a subsequent thrombin cleavage site, followed by a polylinker sequence and, finally, six histidine codons and a stop codon.
2 ml of 3% sarcosyl are resuspended in PBS and stored on ice. 2 ml of inclusion bodies obtained in example 2 are added and mixed and treated for one minute with sonication. Immediately afterwards, 16 ml of 0.1% detergent stock solution in PBS are added.
Thereafter, a dialysis against 2 l of PBS is performed for four hours, as well as adding of 1 mM of GSH/0.1 mM GSSG from a 100× stock solution in water.
The solution is then stored for 48 hours at 4° C., whereupon, by flow dialysis, the adenosine binding was detectable, i.e. the receptor was present in native form.

In data set [1], `CCCCCCCCCCCCCCOP(=O)([O-])OCC[N+](C)(C)C` [alkyl-phosphorylcholine C14] showed a cmc-value of 50 µM.

With `Nc1ncnc2c1ncn2[C@@H]1O[C@H](CO)[C@@H](O)[C@H]1O` [adenosine], the adenosine binding entry in the data set on AO adenosine receptor was “detectable”. As for `CCCCCCCCCCCCOP(=O)([O-])OCC[N+](C)(C)C` [alkyl-phosphorylcholine C12], in data set [1], the cmc-value stood at 500 µM.

In data set [1], `CCCCCCCCCCCCCOP(=O)([O-])OCC[N+](C)(C)C` [alkyl-phosphorylcholine C13] came in with a cmc-value of 150 µM. As to `CCCCCCCCCCCCCCCCOP(=O)([O-])OCC[N+](C)(C)C` [alkyl-phosphorylcholine C16], the cmc-value in data set [1] worked out at 5 µM.

The values are drawn from US6939951B1, “Refolding of membrane proteins” (M-Phasys GmbH, priority 1999, dated 2005).
